Experimental data taken from patent publication US20260216164A1, “INDOLE COMPOUND DECOMPOSING IKZF2, AND USE THEREOF” (KOREA RESEARCH INSTITUTE OF CHEMICAL TECHNOLOGY, priority 2023, published 2026).

Key:
Helios (IKZF2) = Helios (IKZF2) (Homo sapiens, UniProt Q96SW2+Q9UKS7); experiment: Screening of Helios protein degraders using Nano-Glo HiBiT cell line (HiBiT-IKZF2); format: cell-based; details: 6 hours, HiBiT-Helios knock-in Jurkat cells; for remaining activity at 10 µM: compound 10 μM, read-out: HiBiT-IKZF2 Residual amount of Helios (%) 10 μM; for remaining activity at 1 µM: compound 1 μM, read-out: HiBiT-IKZF2 Residual amount of Helios (%) 1 μM
Description: To observe intracellular degradation of Helios, the Nano-Glo HiBiT detection system (Promega) was employed. […] The cells expressing Helios fused with HiBiT were validated using the Nano-Glo HiBiT detection system (Promega) according to a predetermined protocol, isolated as single cells, and cultured in complete medium to establish a monoclonal cell line.
After 6 hours, the Nano-Glo HiBiT detection reagent was added to each well in an equal volume to the cell culture medium and incubated at room temperature for 10 minutes. Following incubation, the HiBiT luminescence signal was measured using a microplate reader (Perkin Elmer).

IKZF2 (Helios) = IKZF2 (Helios) (Homo sapiens, UniProt Q96SW2+Q9UKS7); experiment: Screening of DC50 (nM) and Dmax (%) using WB-IKZF2 cell line (Western blot); format: cell-based; design: endogenous in cells; details: 6 hours; for DC50: class symbols, read-out: WB-IKZF2 DC 50
Description: Experimental Example 2. Screening of DC50 (nM) and Dmax (%) Using WB-IKZF2 Cell Line
Candidate degraders were serially diluted and treated in cells cultured in complete medium, followed by incubation for 6 hours at 37° C. in a CO2 incubator. After 6 hours, the cells were harvested and lysed in RIPA buffer (150 mM NaCl, 1% Triton X-100, 1% sodium deoxycholate, 0.1% SDS, 50 mM Tris-HCl pH 7.5, and 2 mM EDTA) containing a protease inhibitor cocktail (Roche). The mixture was vortexed every 10 minutes and incubated on ice for 30 minutes, followed by centrifugation at 13,000 rpm for 10 minutes at 4° C. to isolate proteins. The isolated proteins were quantified using the Bradford assay (Bio-Rad, 5000006). Proteins were separated on 8% SDS-polyacrylamide gel, transferred onto nitrocellulose membranes (Amersham, 10600002), and incubated with primary antibodies at 4° C. for 18 hours. The following primary antibodies were used: anti-Helios rabbit monoclonal antibody (Cell Signaling, 42427, 1:3000) and anti-β-actin mouse monoclonal antibody (Santa Cruz, sc-47778, 1:5000). β-actin was used as a loading control. The next day, the membranes were washed with 1×TBST for 30 minutes and incubated with HRP-conjugated secondary antibodies corresponding to the primary antibodies at room temperature for 1 hour. The following secondary antibodies were used: anti-mouse IgG HRP-linked antibody (Sigma, A9044, 1:5000) and anti-rabbit IgG HRP-linked antibody (Cell Signaling, 7074, 1:5000). After washing with 1×TBST for 30 minutes, protein expression was visualized using the Pierce ECL Western blotting substrate (Thermo Fisher, 32106), and images were captured using a chemiluminescence image analysis system (GE Healthcare, AI680). The obtained images were quantified using the ImageJ software.

Helios (IKZF2), sequence (Q9UKS7 whole entry, the tested form may be a part): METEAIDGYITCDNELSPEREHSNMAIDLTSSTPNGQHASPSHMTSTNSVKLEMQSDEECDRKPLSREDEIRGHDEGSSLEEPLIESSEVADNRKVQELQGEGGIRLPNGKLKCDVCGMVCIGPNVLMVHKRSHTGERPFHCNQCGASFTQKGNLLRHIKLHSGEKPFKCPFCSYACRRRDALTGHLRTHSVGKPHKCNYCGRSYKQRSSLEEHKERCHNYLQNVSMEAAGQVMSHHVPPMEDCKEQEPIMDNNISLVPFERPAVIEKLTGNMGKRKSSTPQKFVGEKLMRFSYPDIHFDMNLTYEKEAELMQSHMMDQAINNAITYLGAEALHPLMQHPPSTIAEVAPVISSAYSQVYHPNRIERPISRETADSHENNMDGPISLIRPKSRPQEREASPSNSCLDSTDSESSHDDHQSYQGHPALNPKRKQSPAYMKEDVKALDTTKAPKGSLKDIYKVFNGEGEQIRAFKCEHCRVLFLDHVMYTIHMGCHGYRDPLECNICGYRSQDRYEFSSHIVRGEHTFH
Helios (IKZF2), sequence (Q96SW2 whole entry, the tested form may be a part): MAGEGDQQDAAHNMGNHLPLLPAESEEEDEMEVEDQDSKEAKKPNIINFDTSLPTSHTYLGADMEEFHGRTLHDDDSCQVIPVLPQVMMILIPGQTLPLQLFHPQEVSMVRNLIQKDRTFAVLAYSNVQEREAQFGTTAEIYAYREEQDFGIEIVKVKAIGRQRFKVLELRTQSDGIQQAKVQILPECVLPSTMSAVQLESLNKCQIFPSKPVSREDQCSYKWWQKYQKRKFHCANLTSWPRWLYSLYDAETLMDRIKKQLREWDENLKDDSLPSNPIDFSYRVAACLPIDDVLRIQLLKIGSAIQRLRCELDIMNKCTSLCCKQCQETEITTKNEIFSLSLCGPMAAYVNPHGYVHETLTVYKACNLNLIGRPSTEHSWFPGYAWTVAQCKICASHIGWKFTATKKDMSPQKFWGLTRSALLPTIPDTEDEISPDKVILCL
Helios (IKZF2), sequence (Q16531 whole entry partner, the tested form may be a part): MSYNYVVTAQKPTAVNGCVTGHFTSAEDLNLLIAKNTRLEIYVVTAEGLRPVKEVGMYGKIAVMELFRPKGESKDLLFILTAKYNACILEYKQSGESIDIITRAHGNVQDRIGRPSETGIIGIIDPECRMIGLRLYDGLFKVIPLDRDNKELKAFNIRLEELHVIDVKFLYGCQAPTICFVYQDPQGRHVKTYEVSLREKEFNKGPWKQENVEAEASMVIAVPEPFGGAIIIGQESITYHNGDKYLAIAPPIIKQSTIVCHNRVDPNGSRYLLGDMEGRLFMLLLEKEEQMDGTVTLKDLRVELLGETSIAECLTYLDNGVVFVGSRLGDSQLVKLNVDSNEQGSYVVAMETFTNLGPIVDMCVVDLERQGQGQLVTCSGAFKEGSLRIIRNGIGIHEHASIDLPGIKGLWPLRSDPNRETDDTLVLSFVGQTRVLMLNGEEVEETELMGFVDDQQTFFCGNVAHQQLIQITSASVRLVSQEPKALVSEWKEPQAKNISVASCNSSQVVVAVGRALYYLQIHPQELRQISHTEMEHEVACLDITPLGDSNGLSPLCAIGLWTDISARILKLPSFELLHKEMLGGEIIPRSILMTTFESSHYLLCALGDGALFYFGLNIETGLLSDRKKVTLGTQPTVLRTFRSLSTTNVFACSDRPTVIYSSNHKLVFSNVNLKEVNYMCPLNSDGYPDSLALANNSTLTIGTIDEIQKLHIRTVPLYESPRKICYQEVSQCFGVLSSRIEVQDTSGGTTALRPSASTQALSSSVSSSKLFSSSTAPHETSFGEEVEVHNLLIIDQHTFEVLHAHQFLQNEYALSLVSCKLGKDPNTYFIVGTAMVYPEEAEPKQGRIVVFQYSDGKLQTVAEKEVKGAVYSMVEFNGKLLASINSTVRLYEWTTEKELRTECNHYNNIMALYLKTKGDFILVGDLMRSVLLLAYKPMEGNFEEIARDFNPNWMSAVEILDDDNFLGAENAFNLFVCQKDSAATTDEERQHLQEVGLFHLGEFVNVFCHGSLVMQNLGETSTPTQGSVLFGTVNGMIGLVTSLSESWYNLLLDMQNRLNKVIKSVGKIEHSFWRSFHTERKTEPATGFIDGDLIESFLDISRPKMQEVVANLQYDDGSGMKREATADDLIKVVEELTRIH
IKZF2 (Helios), sequence (Q9UKS7 whole entry): as the sequence (Q9UKS7 whole entry, the tested form may be a part) above
IKZF2 (Helios), sequence (Q96SW2 whole entry): as the sequence (Q96SW2 whole entry, the tested form may be a part) above
IKZF2 (Helios), sequence (Q16531 whole entry partner): as the sequence (Q16531 whole entry partner, the tested form may be a part) above

SMILES	remaining activity at 10 µM (Helios (IKZF2)) [%]	remaining activity at 1 µM (Helios (IKZF2)) [%]	Dmax (IKZF2 (Helios)) [%]	DC50 (IKZF2 (Helios)) [nM]
Cc1c(C(=O)N2CCC(c3ccc4c(c3)CN(C3CCC(=O)NC3=O)C4=O)C2)[nH]c2cc(Cl)ccc12 (centres unmarked) [Compound 67, 3-(5-(1-(6-chloro-3-methyl-1H-indole-2-carbonyl)pyrrolidin-3-yl)-1-oxoinsoindolin-2-yl)piperidine-2,6-dione]	78.7	–	–	–
Cc1ccc2c(C)c(C(=O)N3CCC(c4ccc5c(c4)CN(C4CCC(=O)NC4=O)C5=O)CC3)[nH]c2c1 (centres unmarked) [Compound 69, 3-(5-(1-(3,6-dimethyl-1H-indole-2-carbonyl)piperidin-4-yl)-1-oxoinsoindolin-2-yl)piperidine-2,6-dione]	41.8	22	–	–
Cc1c(C(=O)N2CC=C(c3ccc4c(c3)CN(C3CCC(=O)NC3=O)C4=O)CC2)[nH]c2cc(Cl)ccc12 (centres unmarked) [Compound 70, 3-(5-(1-(6-chloro-3-methyl-1H-indole-2-carbonyl)-1,2,3,6-tetrahydropyridin-4-yl)-1-oxoinsoindolin-2-yl)piperidine-2,6-dione]	101	94.8	–	–
Cc1c(C(=O)N2CCC(c3ccc4c(c3)CN(C3CCC(=O)NC3=O)C4=O)CC2)[nH]c2cc(Cl)c(Cl)cc12 (centres unmarked) [Compound 72, 3-(5-(1-(5,6-dichloro-3-methyl-1H-indole-2-carbonyl)piperidin-4-yl)-1-oxoinsoindolin-2-yl)piperidine-2,6-dione]	34.3	43.3	–	–
CC(=O)Nc1ccc2c(C)c(C(=O)N3CCC(c4ccc5c(c4)CN(C4CCC(=O)NC4=O)C5=O)CC3)[nH]c2c1 (centres unmarked) [Compound 73, N-(2-(4-(2-(2,6-dioxopiperidin-3-yl)-1-oxoindolin-5-yl)piperidine-1-carbonyl)-3-methyl-1H-indol-6-yl)acetamide]	27.8	59.2	–	–
Cc1c(C(=O)N2CCC(c3ccc4c(c3)CN(C3CCC(=O)NC3=O)C4=O)CC2)[nH]c2cc(NS(C)(=O)=O)ccc12 (centres unmarked) [Compound 74, N-(2-(4-(2-(2,6-dioxopiperidin-3-yl)-1-oxoindolin-5-yl)piperidine-1-carbonyl)-3-methyl-1H-indol-6-yl) methanesulfonamide]	75.8	73.2	–	–
O=Cc1c(C(=O)N2CCC(c3ccc4c(c3)CN(C3CCC(=O)NC3=O)C4=O)CC2)[nH]c2cc(Cl)ccc12 (centres unmarked) [Compound 81, 6-chloro-2-(4-(2-(2,6-dioxopiperidin-3-yl)-1-oxoindolin-5-yl)piperidine-1-carbonyl)-1H-indole-3-carbaldehyde]	28.7	–	–	–
Cc1c(C(=O)N2CCC(c3ccc4c(c3)CN(C3CCC(=O)NC3=O)C4=O)CC2)[nH]c2cc(Cl)c(Br)cc12 (centres unmarked) [Compound 83, 3-(5-(1-(5-bromo-6-chloro-3-methyl-1H-indole-2-carbonyl)piperidin-4-yl)-1-oxoinsoindolin-2-yl)piperidine-2,6-dione]	49	–	–	–
Cc1c(C(=O)N2CCC(c3ccc4c(c3)C(=O)N(C3CCC(=O)NC3=O)C4=O)CC2)[nH]c2cc(Cl)ccc12 (centres unmarked) [Compound 92, 5-(1-(6-chloro-3-methyl-1H-indole-2-carbonyl)piperidin-4-yl)-2-(2,6-dioxopiperidin-3-yl)isoindoline-1,3-dione]	36.1	–	–	–
Cc1c(C(=O)N2CCC(c3ccc4c(c3)CN(C3CCC(=O)NC3=O)C4=O)CC2)[nH]c2c(C)c(Cl)ccc12 (centres unmarked) [Compound 100, 3-(5-(1-(6-chloro-3,7-dimethyl-1H-indole-2-carbonyl)piperidin-4-yl)-1-oxoinsoindolin-2-yl)piperidine-2,6-dione]	11.4	16.8	–	–
Cc1cc2c(C)c(C(=O)N3CCC(c4ccc5c(c4)CN(C4CCC(=O)NC4=O)C5=O)CC3)[nH]c2cc1Cl (centres unmarked) [Compound 103, 3-(5-(1-(6-chloro-3,5-dimethyl-1H-indole-2-carbonyl)piperidin-4-yl)-1-oxoinsoindolin-2-yl)piperidine-2,6-dione]	20.6	26.8	–	–
O=C1CCC(N2Cc3cc(C4CCN(C(=O)c5[nH]c6cc(Cl)ccc6c5CO)CC4)ccc3C2=O)C(=O)N1 (centres unmarked) [Compound 105, 3-(5-(1-(6-chloro-3-(hydroxymethyl)-1H-indole-2-carbonyl)piperidin-4-yl)-1-oxoinsoindolin-2-yl)piperidine-2,6-dione]	8.5	15.2	–	–
Cc1c(C(=O)N2CCC(c3ccc4c(c3)CN(C3CCC(=O)NC3=O)C4=O)CC2)[nH]c2cc(CN3CCNCC3)ccc12 (centres unmarked) [Compound 106, 3-(5-(1-(3-methyl-6-(piperazin-1-ylmethyl)-1H-indole-2-carbonyl)piperidin-4-yl)-1-oxoinsoindolin-2-yl)piperidine-2,6-dione dichloride]	33.6	42.8	–	–
Cc1c(C(=O)N2CCC(c3ccc4c(c3)CN(C3CCC(=O)NC3=O)C4=O)CC2)[nH]c2cc(Cl)cc(Cl)c12 (centres unmarked) [Compound 107, 3-(5-(1-(4,6-dichloro-3-methyl-1H-indole-2-carbonyl)piperidin-4-yl)-1-oxoinsoindolin-2-yl)piperidine-2,6-dione]	51.5	56.6	–	–
Cc1c(C(=O)N2CCC(c3ccc4c(c3)CN(C3CCC(=O)NC3=O)C4=O)CC2)[nH]c2cc(Cl)c(CN3CCNCC3)cc12 (centres unmarked) [Compound 109, 3-(5-(1-(6-chloro-3-methyl-5-(piperazin-1-ylmethyl)-1H-indole-2-carbonyl)piperidin-4-yl)-1-oxoinsoindolin-2-yl)piperidine-2,6-dione dichloride]	24.6	38.4	–	–
COc1ccc2c(CN3CCOCC3)c(C(=O)N3CCC(c4ccc5c(c4)CN(C4CCC(=O)NC4=O)C5=O)CC3)[nH]c2c1 (centres unmarked) [Compound 110, 3-(5-(1-(6-methoxy-3-(morpholinomethyl)-1H-indole-2-carbonyl)piperidin-4-yl)-1-oxoinsoindolin-2-yl)piperidine-2,6-dione]	–	14.2	–	–
CN1CCN(Cc2c(C(=O)N3CCC(c4ccc5c(c4)CN(C4CCC(=O)NC4=O)C5=O)CC3)[nH]c3cc(Cl)ccc23)CC1 (centres unmarked) [Compound 114, 3-(5-(1-(6-chloro-3-((4-methylpiperazin-1-yl)methyl)-1H-indole-2-carbonyl)piperidin-4-yl)-1-oxoinsoindolin-2-yl)piperidine-2,6-dione]	–	31.8	–	–
Cc1c(C(=O)N2CCC(c3ccc4c(c3F)CN(C3CCC(=O)NC3=O)C4=O)CC2)[nH]c2cc(N3CCOCC3)ccc12 (centres unmarked) [Compound 116, 3-(4-fluoro-5-(1-(3-methyl-6-morpholino-1H-indole-2-carbonyl)piperidin-4-yl)-1-oxoinsoindolin-2-yl)piperidine-2,6-dione]	–	–	96	10 to 100
Cc1c(C(=O)N2CCC(c3ccc4c(c3F)CN(C3CCC(=O)NC3=O)C4=O)CC2)[nH]c2c(F)c(Cl)ccc12 (centres unmarked) [Compound 117, 3-(5-(1-(6-chloro-7-fluoro-3-methyl-1H-indole-2-carbonyl)piperidin-4-yl)-4-fluoro-1-oxoinsoindolin-2-yl)piperidine-2,6-dione]	–	–	–	< 10
Cc1c(C(=O)N2CCC(c3ccc4c(c3F)CN(C3CCC(=O)NC3=O)C4=O)CC2)[nH]c2cc(C#N)ccc12 (centres unmarked) [Compound 118, 2-(4-(2-(2,6-dioxopiperidin-3-yl)-4-fluoro-1-oxoindolin-5-yl)piperidine-1-carbonyl)-3-methyl-1H-indole-6-carbonitrile]	–	–	100	< 10
Cc1c(C(=O)N2CCC(c3ccc4c(c3F)CN(C3CCC(=O)NC3=O)C4=O)CC2)[nH]c2c(F)c(C#N)ccc12 (centres unmarked) [Compound 122, 2-(4-(2-(2,6-dioxopiperidin-3-yl)-4-fluoro-1-oxoindolin-5-yl)piperidine-1-carbonyl)-7-fluoro-3-methyl-1H-indole-6-carbonitrile]	11.2	–	–	–
Cc1c(C(=O)N2CCC(c3ccc4c(c3F)CN(C3CCC(=O)N(COC(=O)C(C)(C)C)C3=O)C4=O)CC2)[nH]c2cc(Cl)ccc12 (centres unmarked) [Compound 123, (3-(5-(1-(6-chloro-3-methyl-1H-indole-2-carbonyl)piperidin-4-yl)-4-fluoro-1-oxoinsoindolin-2-yl)-2,6-dioxopiperidin-1-yl)methyl pivalate]	14.3	–	–	–
